Experimental data from patent US7183075B2, “Purified and isolated potassium-chloride cotransporter nucleic acids and polypeptides and therapeutic and screening methods using same” (Vanderbilt University, priority 2000, dated 2007).

How the values were obtained:
rat KCC2 = target: T1, rat KCC2 (Rattus norvegicus, UniProt Q63633); details: rat KCC2 in HEK293 cells; read-out: chloride affinity (Km) reported for rKCC2; cited from earlier work
T1 construct: host or cells: HEK293 cells
T1 sequence (Q63633 1-1116 isoform Q63633-2): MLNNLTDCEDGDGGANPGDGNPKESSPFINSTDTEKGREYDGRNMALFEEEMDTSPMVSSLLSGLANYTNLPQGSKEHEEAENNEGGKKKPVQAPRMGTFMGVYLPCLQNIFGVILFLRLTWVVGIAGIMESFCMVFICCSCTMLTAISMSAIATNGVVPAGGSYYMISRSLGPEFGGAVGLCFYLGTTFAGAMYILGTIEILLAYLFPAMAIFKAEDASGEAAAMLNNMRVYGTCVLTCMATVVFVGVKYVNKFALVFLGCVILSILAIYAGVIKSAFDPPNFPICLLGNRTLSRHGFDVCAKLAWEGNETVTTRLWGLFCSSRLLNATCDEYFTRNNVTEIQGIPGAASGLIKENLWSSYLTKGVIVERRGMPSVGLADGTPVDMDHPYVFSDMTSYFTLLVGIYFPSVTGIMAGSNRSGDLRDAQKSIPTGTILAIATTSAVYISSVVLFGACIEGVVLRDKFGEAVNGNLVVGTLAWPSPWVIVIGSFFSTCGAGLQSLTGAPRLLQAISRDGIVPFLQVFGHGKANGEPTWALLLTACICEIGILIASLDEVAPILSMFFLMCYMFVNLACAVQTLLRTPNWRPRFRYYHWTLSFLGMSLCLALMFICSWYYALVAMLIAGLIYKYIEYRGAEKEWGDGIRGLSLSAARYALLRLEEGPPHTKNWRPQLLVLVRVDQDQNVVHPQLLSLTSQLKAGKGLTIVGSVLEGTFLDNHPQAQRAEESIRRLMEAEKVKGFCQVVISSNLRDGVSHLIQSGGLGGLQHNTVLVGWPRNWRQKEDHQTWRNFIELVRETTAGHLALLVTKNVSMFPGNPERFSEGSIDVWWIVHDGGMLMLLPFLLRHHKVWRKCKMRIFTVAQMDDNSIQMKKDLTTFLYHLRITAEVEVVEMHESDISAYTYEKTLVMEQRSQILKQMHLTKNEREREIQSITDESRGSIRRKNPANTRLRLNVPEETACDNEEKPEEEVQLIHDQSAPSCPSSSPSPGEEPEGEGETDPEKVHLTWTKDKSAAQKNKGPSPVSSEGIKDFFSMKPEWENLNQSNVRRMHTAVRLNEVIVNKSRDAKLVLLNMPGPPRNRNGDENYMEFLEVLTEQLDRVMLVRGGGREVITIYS

[1] = target: mKCC4 mutant C256A/C469N/C565A/C647M (Mus musculus, UniProt Q9WVL3, C257A/C469N/C565A/C647M)
Description: (§1) Mercury is known to inhibit several transporters via interaction with transmembrane or juxtamembrane cysteines (Kuwahara et al. (1997) Biochemistry 36:13973–13978; Jacoby (1999) Am J Physiol 277:C684–692). Given the inhibition of the KCCs by millimolar NEM at room temperature, presumed due to alkylation of cysteine residues (Mercado et al. (2000) J Biol Chem 275:30326–3034), the differential response of the KCCs to 50 μM mercury (Hg—Cl2) was examined. […] Of note, a cysteine residue in TM11 of NKCC1 is involved in the response of Na^+—K^+-2Cl^− cotransport to mercury (Jacoby (1999) Am J Physiol 277:C684–692).

[2] = target: mKCC4 mutant C256A/C469N/C565A/C647M/C633S (Mus musculus, UniProt Q9WVL3, C257A/C469N/C565A/C633S/C647M)
Description: as §1

Chain of mKCC4 mutant C256A/C469N/C565A/C647M/C633S (Q9WVL3 whole entry C257A/C469N/C565A/C633S/C647M): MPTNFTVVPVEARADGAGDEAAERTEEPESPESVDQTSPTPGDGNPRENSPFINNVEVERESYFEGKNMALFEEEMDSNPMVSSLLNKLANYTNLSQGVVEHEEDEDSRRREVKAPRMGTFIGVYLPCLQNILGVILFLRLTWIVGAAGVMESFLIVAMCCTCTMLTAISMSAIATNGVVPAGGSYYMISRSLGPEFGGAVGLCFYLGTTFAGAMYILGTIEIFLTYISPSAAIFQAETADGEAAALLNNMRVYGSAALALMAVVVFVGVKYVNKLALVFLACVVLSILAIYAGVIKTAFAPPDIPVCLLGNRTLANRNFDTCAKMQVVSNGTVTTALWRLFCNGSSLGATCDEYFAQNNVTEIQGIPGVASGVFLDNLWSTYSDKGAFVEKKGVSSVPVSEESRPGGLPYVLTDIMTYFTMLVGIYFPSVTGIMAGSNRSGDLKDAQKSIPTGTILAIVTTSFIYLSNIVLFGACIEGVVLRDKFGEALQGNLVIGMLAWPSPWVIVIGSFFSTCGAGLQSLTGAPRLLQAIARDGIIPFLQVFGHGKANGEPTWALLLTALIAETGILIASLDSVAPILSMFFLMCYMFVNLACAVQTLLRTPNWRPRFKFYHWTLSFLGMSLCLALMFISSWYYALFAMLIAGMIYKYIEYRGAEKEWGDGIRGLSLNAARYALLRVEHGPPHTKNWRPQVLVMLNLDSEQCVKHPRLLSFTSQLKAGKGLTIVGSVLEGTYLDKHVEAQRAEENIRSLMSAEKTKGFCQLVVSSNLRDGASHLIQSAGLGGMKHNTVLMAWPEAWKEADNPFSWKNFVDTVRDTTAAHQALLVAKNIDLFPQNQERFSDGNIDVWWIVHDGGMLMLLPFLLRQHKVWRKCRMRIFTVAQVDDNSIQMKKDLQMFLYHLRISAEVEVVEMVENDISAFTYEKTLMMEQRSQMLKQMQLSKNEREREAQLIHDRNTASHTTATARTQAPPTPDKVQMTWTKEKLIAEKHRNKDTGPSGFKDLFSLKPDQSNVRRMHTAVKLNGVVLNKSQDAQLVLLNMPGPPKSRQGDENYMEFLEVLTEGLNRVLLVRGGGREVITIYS
Chain of mKCC4 mutant C256A/C469N/C565A/C647M (Q9WVL3 whole entry C257A/C469N/C565A/C647M): as the sequence (Q9WVL3 whole entry C257A/C469N/C565A/C633S/C647M) above, with S633C counted along it

Molecule | Km (rat KCC2) | response of quadruple mutant mKCC4 to HgCl2 [1] | response of quintuple mutant mKCC4 to HgCl2 [2]
Cl [Chloride] | > 50 mM | – | –
HgCl2 [Hg—Cl2] | – | weakly sensitive | resistant
